From ChEMBL document CHEMBL3045483, “Chalcones as promising pesticidal agents against diamondback moth (Plutella xylostella): microwave-assisted synthesis and structureactivity relationship” (Med Chem Res, 2012)
Values after ≈ are worked out from the molar mass of the structure shown.

Experiments:
[1] = Aqueous solubility of the compound; assay type: physicochemical; conditions: buffer
[2] = test system: Plutella xylostella; assay: Insecticidal activity against second-instar larvae Plutella xylostella (diamondback moth) in compound treated cabbage leaves assessed as mortality after 48 hr by leaf dip method; assay type: functional; conditions: foliar
[3] = test system: Plutella xylostella; assay: Insecticidal activity against second-instar larvae Plutella xylostella (diamondback moth) in compound treated cabbage leaves assessed as mortality at 10000 ug/mL after 48 hr by leaf dip method; assay type: functional; conditions: foliar
[4] = test system: Plutella xylostella; assay: Insecticidal activity against second-instar larvae Plutella xylostella (diamondback moth) in compound treated cabbage leaves assessed as mortality at 5000 ug/mL after 48 hr by leaf dip method; assay type: functional; conditions: foliar

Structure (SMILES)	solubility [1]	LC50 [2]	mortality at 10000 µg/mL [3]	mortality at 5000 µg/mL [4]
COc1ccc(C(=O)/C=C/c2cccc3ccccc23)cc1	Insoluble	–	–	–
O=C(/C=C/c1ccc(Cl)cc1)c1ccc(Cl)cc1 [4',4-DICHLOROCHALCONE]	–	170 µg/mL (≈ 614 µM)	100%	100%
O=C(/C=C/c1ccc(Cl)cc1)c1ccc([N+](=O)[O-])cc1	–	–	26.6%	20%
COc1ccc(C(=O)/C=C/c2ccc(Cl)c(Cl)c2)cc1	–	288 µg/mL (≈ 936 µM)	100%	100%
COc1ccc(C(=O)/C=C/c2ccc(Cl)cc2)cc1	–	356 µg/mL (≈ 1310 µM)	100%	100%
O=C(/C=C/c1ccc(Cl)cc1)c1ccc2c(c1)OCO2	–	–	23%	13.3%
COc1ccc(/C=C/C(=O)c2ccc(OC)cc2)cc1 [4,4'-DIMETHOXYCHALCONE]	–	–	26.6%	16.6%
O=C(/C=C/c1ccc(Cl)cc1)c1ccc(O)cc1	–	871 µg/mL (≈ 3370 µM)	100%	100%
O=C(/C=C/c1cccs1)c1ccc([N+](=O)[O-])cc1	–	–	30%	23.3%
Cc1ccc(C(=O)/C=C/c2ccc(Cl)c(Cl)c2)cc1	–	–	83.3%	60%
COc1ccc(C(=O)/C=C/c2ccc(Cl)cc2Cl)cc1	–	278 µg/mL (≈ 907 µM)	100%	100%
C=CCOc1ccc(C(=O)/C=C/c2ccc(Cl)cc2)cc1	–	268 µg/mL (≈ 898 µM)	100%	100%
COc1cc(C(=O)/C=C/c2ccc(Cl)c(Cl)c2)cc(OC)c1OC	Insoluble	–	–	–
COc1cc(OC)c(OC)cc1/C=C/C(C)=O	–	–	26.6%	0%
COc1ccc(C(=O)/C=C/c2ccc(F)cc2)cc1	–	–	33.3%	26.6%
CC1(C)[C@H](C(=O)O[C@H](C#N)c2cccc(Oc3ccccc3)c2)[C@@H]1C=C(Br)Br [DELTAMETHRIN]	–	6.25 µg/mL (≈ 12.4 µM)	–	–
COc1ccc(C(=O)/C=C/c2ccc(Br)cc2)cc1	–	–	10%	3.3%
COc1ccc(C(=O)/C=C/c2ccc(Cl)c(Cl)c2)cc1OC	–	–	68%	46.6%
O=C(/C=C/c1ccc(Cl)c(Cl)c1)c1ccc(Cl)c(Cl)c1	–	–	73.3%	46.6%
COc1cccc(C(=O)/C=C/c2ccc(Cl)c(Cl)c2)c1	Insoluble	–	–	–
COc1ccccc1C(=O)/C=C/c1ccc(Cl)c(Cl)c1	–	–	63.3%	50%
O=C(/C=C/c1ccco1)c1ccc([N+](=O)[O-])cc1	–	–	23%	16.6%
COc1ccc(/C=C/C(=O)c2ccc(Cl)cc2)cc1	–	–	50%	26.6%
COc1ccc(/C=C/C(C)=O)cc1	–	–	30%	26.6%
O=C(/C=C/c1ccc(Cl)c(Cl)c1)c1ccc(Cl)cc1	–	–	97.7%	60%
COc1cc(/C=C/C(C)=O)ccc1O [DEHYDROZINGERONE]	Insoluble	–	–	–
